Source: US8183262B2, “Pyridine derivatives as mGluR2 antagonists” (Hoffmann-La Roche Inc., priority 2007, dated 2012)

Compound | melting point
NS(=O)(=O)c1cccc(-c2cc(-c3nc(-c4ccc(Cl)cc4)cc(C(F)(F)F)n3)ccn2)c1 [Example 179, 3-{4-[4-(4-Chloro-phenyl)-6-trifluoromethyl-pyrimidin-2-yl]-pyridin-2-yl}-benzenesulfonamide] | 182 °C
Cc1cc(-c2ccc(Cl)cc2)nc(-n2cnc(-c3ccc(S(N)(=O)=O)cc3)c2)n1 [Example 180, 4-{1-[4-(4-Chloro-phenyl)-6-methyl-pyrimidin-2-yl]-1H-imidazol-4-yl}-benzenesulfonamide] | 312 °C
NS(=O)(=O)c1cnc(-c2cn(-c3nc(-c4ccc(C(F)(F)F)cc4)cc(C(F)(F)F)n3)cn2)s1 [Example 181, 2-{1-[4-Trifluoromethyl-6-(4-trifluoromethyl-phenyl)-pyrimidin-2-yl]-1H-imidazol-4-yl}-thiazole-5-sulfonic acid amide] | 264 °C
NS(=O)(=O)c1cnc(-c2cn(-c3nc(-c4ccc(Cl)cc4)cc(C(F)(F)F)n3)cn2)s1 [Example 182, 2-{1-[4-(4-Chloro-phenyl)-6-trifluoromethyl-pyrimidin-2-yl]-1H-imidazol-4-yl}-thiazole-5-sulfonic acid amide] | 263 °C
Cc1cc(-c2ccc(C(F)(F)F)cc2)nc(-n2cnc(-c3ccc(S(N)(=O)=O)cc3)c2)n1 [Example 183, 4-{1-[4-Methyl-6-(4-trifluoromethyl-phenyl)-pyrimidin-2-yl]-1H-imidazol-4-yl}-benzenesulfonamide] | 323 °C
Cc1cc(-c2ccc(C(F)(F)F)cc2)nc(-n2cnc(-c3cccc(S(N)(=O)=O)c3)c2)n1 [Example 184, 3-{1-[4-Methyl-6-(4-trifluoromethyl-phenyl)-pyrimidin-2-yl]-1H-imidazol-4-yl}-benzenesulfonamide] | 186 °C
Nc1ccc(-c2cn(-c3nc(-c4cccc(Cl)c4)cc(C(F)(F)F)n3)cn2)cn1 [Example 186, 5-{1-[4-(3-Chloro-phenyl)-6-trifluoromethyl-pyrimidin-2-yl]-1H-imidazol-4-yl}-pyridin-2-ylamine] | 248 °C
NS(=O)(=O)c1ccc(-c2cn(-c3nc(-c4cccc(Cl)c4)cc(C(F)(F)F)n3)cn2)s1 [Example 188, 5-{1-[4-(3-Chloro-phenyl)-6-trifluoromethyl-pyrimidin-2-yl]-1H-imidazol-4-yl}-thiophene-2-sulfonic acid amide] | 280 °C
Cc1cc(-c2ccc(Cl)cc2)nc(-c2ccnc(-c3cccc(S(N)(=O)=O)c3)c2)n1 [Example 189, 3-{4-[4-(4-Chloro-phenyl)-6-methyl-pyrimidin-2-yl]-pyridin-2-yl}-benzenesulfonamide] | 224 °C
Cc1cc(-c2ccc(Cl)cc2)nc(-n2cnc(-c3ccc(S(N)(=O)=O)s3)c2)n1 [Example 190, 5-{1-[4-(4-Chloro-phenyl)-6-methyl-pyrimidin-2-yl]-1H-imidazol-4-yl}-thiophene-2-sulfonic acid amide] | 281 °C
Cc1cc(-c2ccc(C(F)(F)F)cc2)nc(-n2cnc(-c3ccc(S(N)(=O)=O)s3)c2)n1 [Example 191, 5-{1-[4-Methyl-6-(4-trifluoromethyl-phenyl)-pyrimidin-2-yl]-1H-imidazol-4-yl}-thiophene-2-sulfonic acid amide] | 277 °C
Cc1cc(-c2ccc(Cl)cc2)nc(-c2ccnc(-c3ccc(S(N)(=O)=O)s3)c2)n1 [Example 192, 5-{4-[4-(4-Chloro-phenyl)-6-methyl-pyrimidin-2-yl]-pyridin-2-yl}-thiophene-2-sulfonic acid amide] | 232.5 °C
Cc1cc(-c2ccc(Cl)c(Cl)c2)nc(-c2cccc(-c3cccc(S(N)(=O)=O)c3)c2)n1 [Example 193, 3′-[4-(3,4-Dichloro-phenyl)-6-methyl-pyrimidin-2-yl]-biphenyl-3-sulfonic acid amide] | 206.5 °C
Cc1cc(-c2ccc(Cl)c(Cl)c2)nc(-c2ccnc(-c3cccc(S(N)(=O)=O)c3)c2)n1 [Example 194, 3-{4-[4-(3,4-Dichloro-phenyl)-6-methyl-pyrimidin-2-yl]-pyridin-2-yl}-benzenesulfonamide] | 202.5 °C
Cc1cc(-c2ccc(Cl)c(Cl)c2)nc(-c2cccc(-c3ccc(S(N)(=O)=O)s3)c2)n1 [Example 195, 5-{3-[4-(3,4-Dichloro-phenyl)-6-methyl-pyrimidin-2-yl]-phenyl}-thiophene-2-sulfonic acid Amide] | 238 °C
Cc1cc(-c2ccc(Cl)c(Cl)c2)nc(-c2ccnc(-c3ccc(S(N)(=O)=O)s3)c2)n1 [Example 196, 5-{4-[4-(3,4-Dichloro-phenyl)-6-methyl-pyrimidin-2-yl]-pyridin-2-yl}-thiophene-2-sulfonic acid amide] | 267 °C
Cc1cc(-c2ccc(C(F)(F)F)cc2)nc(-c2ccnc(-c3ccc(S(N)(=O)=O)s3)c2)n1 [Example 197, 5-{4-[4-Methyl-6-(4-trifluoromethyl-phenyl)-pyrimidin-2-yl]-pyridin-2-yl}-thiophene-2-sulfonic acid amide] | 263.5 °C

Second part, the compound after the results:

melting point | Compound
210 °C | Cc1cc(-c2ccc(Cl)c(Cl)c2)nc(-n2cnc(-c3cccc(S(N)(=O)=O)c3)c2)n1 [Example 198, 3-{1-[4-(3,4-Dichloro-phenyl)-6-methyl-pyrimidin-2-yl]-1H-imidazol-4-yl}-benzenesulfonamide]
282.5 °C | Cc1cc(-c2ccc(Cl)c(Cl)c2)nc(-n2cnc(-c3ccc(S(N)(=O)=O)cc3)c2)n1 [Example 199, 4-{1-[4-(3,4-Dichloro-phenyl)-6-methyl-pyrimidin-2-yl]-1H-imidazol-4-yl}-benzenesulfonamide]
255.5 °C | Cc1cc(-c2ccc(Cl)cc2)nc(-n2cnc(-c3ncc(S(N)(=O)=O)s3)c2)n1 [Example 200, 2-{1-[4-(4-Chloro-phenyl)-6-methyl-pyrimidin-2-yl]-1H-imidazol-4-yl}-thiazole-5-sulfonic acid amide]
241 °C | NS(=O)(=O)c1cccc(-c2cccc(-c3nc(-c4ccc(Cl)c(Cl)c4)cc(C(F)(F)F)n3)c2)c1 [Example 202, 3′-[4-(3,4-Dichloro-phenyl)-6-trifluoromethyl-pyrimidin-2-yl]-biphenyl-3-sulfonic acid amide]
247 °C | NS(=O)(=O)c1cccc(-c2cc(-c3nc(-c4ccc(Cl)c(Cl)c4)cc(C(F)(F)F)n3)ccn2)c1 [Example 203, 3-{4-[4-(3,4-Dichloro-phenyl)-6-trifluoromethyl-pyrimidin-2-yl]-pyridin-2-yl}-benzenesulfonamide]
203 °C | NS(=O)(=O)c1ccc(-c2cccc(-c3nc(-c4ccc(Cl)c(Cl)c4)cc(C(F)(F)F)n3)c2)s1 [Example 204, 5-{3-[4-(3,4-Dichloro-phenyl)-6-trifluoromethyl-pyrimidin-2-yl]-phenyl}-thiophene-2-sulfonic acid amide]
266 °C | NS(=O)(=O)c1ccc(-c2cc(-c3nc(-c4ccc(Cl)c(Cl)c4)cc(C(F)(F)F)n3)ccn2)s1 [Example 205, 5-{4-[4-(3,4-Dichloro-phenyl)-6-trifluoromethyl-pyrimidin-2-yl]-pyridin-2-yl}-thiophene-2-sulfonic acid amide]
205 °C | Cc1cc(-c2cc(C(F)(F)F)nc(-c3cccc(-c4cccc(S(N)(=O)=O)c4)c3)n2)ccc1C(F)(F)F [Example 206, 3′-[4-(3-Methyl-4-trifluoromethyl-phenyl)-6-trifluoromethyl-pyrimidin-2-yl]-biphenyl-3-sulfonic acid amide]
216 °C | Cc1cc(-c2cc(C(F)(F)F)nc(-c3cccc(-c4ccc(S(N)(=O)=O)s4)c3)n2)ccc1C(F)(F)F [Example 207, 5-{3-[4-(3-Methyl-4-trifluoromethyl-phenyl)-6-trifluoromethyl-pyrimidin-2-yl]-phenyl}-thiophene-2-sulfonic acid amide]
282 °C (dec.) | NS(=O)(=O)c1ccc(-c2cn(-c3nc(-c4ccc(Cl)c(Cl)c4)cc(C(F)(F)F)n3)cn2)s1 [Example 208, 5-{1-[4-(3,4-Dichloro-phenyl)-6-trifluoromethyl-pyrimidin-2-yl]-1H-imidazol-4-yl}-thiophene-2-sulfonic acid amide]
260 °C | Cc1cc(-c2cc(C(F)(F)F)nc(-n3cnc(-c4ccc(S(N)(=O)=O)s4)c3)n2)ccc1C(F)(F)F [Example 209, 5-{1-[4-(3-Methyl-4-trifluoromethyl-phenyl)-6-trifluoromethyl-pyrimidin-2-yl]-1H-imidazol-4-yl}-thiophene-2-sulfonic acid amide]
334 °C | NS(=O)(=O)c1ccc(-c2cn(-c3nc(-c4ccc(Cl)c(Cl)c4)cc(C(F)(F)F)n3)cn2)cc1 [Example 211, 4-{1-[4-(3,4-Dichloro-phenyl)-6-trifluoromethyl-pyrimidin-2-yl]-1H-imidazol-4-yl}-benzenesulfonamide]
287 °C | Cc1cc(-c2cc(C(F)(F)F)nc(-n3cnc(-c4ccc(S(N)(=O)=O)cc4)c3)n2)ccc1C(F)(F)F [Example 212, 4-{1-[4-(3-Methyl-4-trifluoromethyl-phenyl)-6-trifluoromethyl-pyrimidin-2-yl]-1H-imidazol-4-yl}-benzenesulfonamide]
180 °C | Cc1cc(-c2cc(C(F)(F)F)nc(-n3cnc(-c4cccc(S(N)(=O)=O)c4)c3)n2)ccc1C(F)(F)F [Example 213, 3-{1-[4-(3-Methyl-4-trifluoromethyl-phenyl)-6-trifluoromethyl-pyrimidin-2-yl]-1H-imidazol-4-yl}-benzenesulfonamide]
213 °C | Cc1cc(-c2ccc(Cl)c(Cl)c2)nc(-n2cnc(-c3cccc(S(C)(=O)=O)c3)c2)n1 [Example 214, 4-(3,4-Dichloro-phenyl)-2-[4-(3-methanesulfonyl-phenyl)-imidazol-1-yl]-6-methyl-pyrimidine]
239 °C | NS(=O)(=O)c1cccc(-c2cn(-c3nc(-c4ccc(Cl)c(Cl)c4)cc(C(F)(F)F)n3)cn2)c1 [Example 215, 3-{1-[4-(3,4-Dichloro-phenyl)-6-trifluoromethyl-pyrimidin-2-yl]-1H-imidazol-4-yl}-benzenesulfonamide]
